Data published in patent US20160074643A1, “SKIN CARE PRODUCTS” (The Procter & Gamble Company, priority 2014, published 2016).
Several values for one entry are separate records, joined by “and”; a condition that tells them apart may be missing. Identical values can stand only once.

Assay: Vitamin B3 in vivo skin penetration study #2: Tape Stripping Method, magnetic vs non-magnetic applicator
Design: species or system human; amount of niacinamide recovered from tape strip / amount of niacinamide recovered from tape strip, Avg / amount of niacinamide recovered, Sum 2-10 / amount of niacinamide recovered, Sum 2-10, Avg / amount of niacinamide recovered, Sum 6-10 / amount of niacinamide recovered, Sum 6-10, Avg: unit not given here
Conditions: for amount of niacinamide recovered from tape strip, Avg / amount of niacinamide recovered, Sum 2-10, Avg / amount of niacinamide recovered, Sum 6-10, Avg: average across all 10 test sites; for amount of niacinamide recovered, Sum 2-10, Avg / amount of niacinamide recovered, Sum 2-10: sum of strips 2-10; for amount of niacinamide recovered, Sum 6-10, Avg / amount of niacinamide recovered, Sum 6-10: sum of strips 6-10
Experimental: This method provides a suitable means of measuring the amount of skin care active present in skin, and comparing active versus passive application of the skin care active. Two identical circular areas of 7.9 cm^2 were marked on the volar forearms of volunteers. A measured dose (approximately 9 mg) of the skin care formulation (ingredients shown in Table 1) was applied to the delineated areas using a screw actuated syringe. Active application was carried out using purpose made applicators having a metallic aluminium skin contact surface behind which was the magnetic array. The cream was spread evenly across the entire delineated region using the applicator in a sweeping motion with a fixed speed of approximately 3.5 cm/s to mimic normal finger application. Passive application was performed using the tip of a finger in a sweeping motion identical to that of application using the applicator. The application period was 30 seconds during which time visual inspection was used to ensure even distribution and absorption of the formulation by skin. The application area was then left uncovered for a further 30 minutes to ensure complete absorption. The application area was then wiped thoroughly to remove any surface material, followed by carrying out tape stripping.
The Tape Stripping Method can be carried out using commercial pre-cut 22.1 mm tape stripping adhesive discs (D-SQUAME brand tape strips from Cuderm Corporation or equivalent) with an adhesive area of 3.8 cm^2. A 22.1 mm diameter circular region was marked at the center of the application area. A tape stripping adhesive disc was placed over the marked area and even pressure applied using a neoprene roller, rolled ten times over the surface. The adhesive disc was removed from the skin surface in a single pulling motion using manual tweezers. To ensure even removal of the stratum corneum, subsequent discs were removed in a north, south, east and west orientation. Each adhesive disc was non-destructively analyzed for relative protein content using the SquameScan™ 850 instrument (Heiland Electronics Wetzlar Germany). The adhesive disc was then immediately placed into a glass vial containing extraction solvent in preparation for subsequent analysis. Solvent extractions are conducted on each tape strip using conventional extraction methods, which are well known to those of ordinary skill in the art, and measuring the amount of niacinamide present in the extract, for example, by high performance liquid chromatography (“HPLC”) and/or mass spectrometry.
In this example, 5 test subjects (A to E in Tables 13 and 14) were selected. […] The applicator used for active application included Array #8 from Table 2. The applicator used for passive application was the same as the one used for active application except without the magnetic array. Each forearm included an active application test site and a passive application site for a total of 10 active test sites and 10 passive sites. The application time was 30 seconds with a speed of motion of approximately 3 cm per second, equating to a gentle rubbing action. Application of the composition was followed by a 30 minute absorption period. […] The level of niacinamide recovered from each tape strip was measured using HPLC.
The average value across all test sites is shown in the second to last cell of the row. The standard error of the mean (SEM) is shown in the last column of Tables 13 and 14. The SEM is calculated by dividing the standard deviation by the square root of the number of test sites. The active versus passive application results from Tables 13 and 14 are graphically illustrated in FIG. 7.
The enhancement values shown in Table 15 are calculated by dividing the active value from Table 14 by the passive value from Table 13. The average shown in the last column of Table 15 is calculated by averaging the enhancement values of all the test sites. […]

[1] = active value divided by passive value, average of all test sites
[2] = active value divided by passive value, individual test sites, Subjects A-E, Site 1/2
[3] = Active Application (magnetic applicator, Array #8)
[4] = Active Application (magnetic applicator, Array #8), individual test sites, Subjects A-E, Site 1/2
[5] = Passive Application (non-magnetic applicator)
[6] = Passive Application (non-magnetic applicator), individual test sites, Subjects A-E, Site 1/2

Enhancement value Strips 2-10, Avg [1]: 1.47
Enhancement value Strips 6-10, Avg [1]: 1.46
niacinamide delivered into the skin, active compared to passive application (magnetic applicator vs non-magnetic applicator): about 1.5 ×
amount of niacinamide recovered from tape strip, Avg (strip 1, Active Application (magnetic applicator, Array #8)): 4.43
amount of niacinamide recovered from tape strip, Avg (strip 1, Passive Application (non-magnetic applicator)): 3.87
amount of niacinamide recovered from tape strip, Avg (strip 2, Active Application (magnetic applicator, Array #8)): 6.10
amount of niacinamide recovered from tape strip, Avg (strip 2, Passive Application (non-magnetic applicator)): 4.12
amount of niacinamide recovered from tape strip, Avg (strip 3, Active Application (magnetic applicator, Array #8)): 8.37
amount of niacinamide recovered from tape strip, Avg (strip 3, Passive Application (non-magnetic applicator)): 5.69
amount of niacinamide recovered from tape strip, Avg (strip 4, Active Application (magnetic applicator, Array #8)): 8.25
amount of niacinamide recovered from tape strip, Avg (strip 4, Passive Application (non-magnetic applicator)): 6.18
amount of niacinamide recovered from tape strip, Avg (strip 5, Active Application (magnetic applicator, Array #8)): 7.68
amount of niacinamide recovered from tape strip, Avg (strip 5, Passive Application (non-magnetic applicator)): 4.91
amount of niacinamide recovered from tape strip, Avg (strip 6, Active Application (magnetic applicator, Array #8)): 7.02
amount of niacinamide recovered from tape strip, Avg (strip 6, Passive Application (non-magnetic applicator)): 4.72
amount of niacinamide recovered from tape strip, Avg (strip 7, Active Application (magnetic applicator, Array #8)): 5.52
amount of niacinamide recovered from tape strip, Avg (strip 7, Passive Application (non-magnetic applicator)): 3.66
amount of niacinamide recovered from tape strip, Avg (strip 8, Active Application (magnetic applicator, Array #8)): 4.63
amount of niacinamide recovered from tape strip, Avg (strip 8, Passive Application (non-magnetic applicator)): 3.43
amount of niacinamide recovered from tape strip, Avg (strip 9, Active Application (magnetic applicator, Array #8)): 5.11
amount of niacinamide recovered from tape strip, Avg (strip 9, Passive Application (non-magnetic applicator)): 3.59
amount of niacinamide recovered from tape strip, Avg (strip 10, Active Application (magnetic applicator, Array #8)): 4.48
amount of niacinamide recovered from tape strip, Avg (strip 10, Passive Application (non-magnetic applicator)): 3.20
amount of niacinamide recovered, Sum 2-10, Avg [3]: 57.16
amount of niacinamide recovered, Sum 2-10, Avg [5]: 39.48
amount of niacinamide recovered, Sum 6-10, Avg [3]: 26.76
amount of niacinamide recovered, Sum 6-10, Avg [5]: 18.59
SMILES: NC(=O)c1cccnc1 [niacinamide]
Enhancement value Strips 2-10 [2]: 1.63 and 1.35 and 1.77 and 1.47 and 1.51 and 1.26 and 1.19 and 1.39 and 1.59 and 1.54
Enhancement value Strips 6-10 [2]: 1.53 (2×) and 1.34 and 1.71 and 1.41 and 1.83 and 1.19 and 1.21 and 1.39 and 1.43
amount of niacinamide recovered from tape strip (strip 1, Passive Application (non-magnetic applicator), individual test sites, Subjects A-E, Site 1/2): 2.62 and 3.31 and 3.07 and 2.86 and 3.16 and 5.69 and 4.14 and 6.28 and 0.54 and 7.00
amount of niacinamide recovered from tape strip (strip 2, Passive Application (non-magnetic applicator), individual test sites, Subjects A-E, Site 1/2): 2.66 and 3.81 and 2.71 and 2.52 and 4.24 and 7.80 and 5.47 and 7.28 and 1.84 and 2.88
amount of niacinamide recovered from tape strip (strip 3, Passive Application (non-magnetic applicator), individual test sites, Subjects A-E, Site 1/2): 3.51 and 5.43 and 6.33 and 3.77 and 6.64 and 7.64 and 6.14 and 9.62 and 2.43 and 5.36
amount of niacinamide recovered from tape strip (strip 4, Passive Application (non-magnetic applicator), individual test sites, Subjects A-E, Site 1/2): 4.22 and 2.79 and 8.53 and 4.24 and 7.48 and 7.15 and 5.87 and 11.29 and 1.29 and 8.91
amount of niacinamide recovered from tape strip (strip 5, Passive Application (non-magnetic applicator), individual test sites, Subjects A-E, Site 1/2): 4.57 and 3.79 and 6.08 and 2.74 and 6.35 and 6.21 and 5.61 and 7.10 and 2.27 and 4.36
amount of niacinamide recovered from tape strip (strip 6, Passive Application (non-magnetic applicator), individual test sites, Subjects A-E, Site 1/2): 4.37 and 3.42 and 6.69 and 1.97 and 5.29 and 7.95 and 4.56 and 6.46 and 2.62 and 3.85
amount of niacinamide recovered from tape strip (strip 7, Passive Application (non-magnetic applicator), individual test sites, Subjects A-E, Site 1/2): 3.57 and 3.37 and 4.35 and 1.87 and 3.82 and 6.89 and 5.41 and 0.19 and 2.67 and 4.47
amount of niacinamide recovered from tape strip (strip 8, Passive Application (non-magnetic applicator), individual test sites, Subjects A-E, Site 1/2): 2.65 and 2.92 and 2.85 and 1.56 and 4.65 and 5.34 and 2.94 and 5.75 and 1.88 and 3.71
amount of niacinamide recovered from tape strip (strip 9, Passive Application (non-magnetic applicator), individual test sites, Subjects A-E, Site 1/2): 2.95 and 2.37 and 2.24 and 2.00 and 3.78 and 6.70 and 2.79 and 7.20 and 2.15 and 3.70
amount of niacinamide recovered from tape strip (strip 10, Passive Application (non-magnetic applicator), individual test sites, Subjects A-E, Site 1/2): 1.58 and 2.24 and 1.54 and 1.31 and 4.53 and 5.34 and 2.42 and 6.19 and 0.71 and 6.10
amount of niacinamide recovered, Sum 2-10 [4]: 49.17 and 40.65 and 72.98 and 32.23 and 70.46 and 76.77 and 48.95 and 85.20 and 28.48 and 66.67
amount of niacinamide recovered, Sum 2-10 [6]: 30.09 and 30.15 and 41.32 and 21.97 and 46.79 and 61.02 and 41.20 and 61.08 and 17.87 and 43.34
amount of niacinamide recovered, Sum 6-10 [4]: 23.12 and 19.16 and 30.14 and 12.25 and 40.38 and 38.27 and 21.85 and 35.82 and 15.32 and 31.26
amount of niacinamide recovered, Sum 6-10 [6]: 15.13 and 14.32 and 17.67 and 8.70 and 22.07 and 32.21 and 18.11 and 25.79 and 10.04 and 21.84
